Measured values published in patent publication US7470821B2, “Aldolase-inhibiting aromatic compounds” (Valorisation-Recherche, Limited Partnership, priority 2003, dated 2008).

Experiments:
[1] = Titration of FHN-P by aminocaproic acid, Schiff base model reaction (method B); conditions: 25° C
Description: Method B is used to titrate FHN-P by aminocaproic acid. For each analysis of TEA buffer containing a fixed concentration of FHN-P (10 μM), aminocaproic acid is added to obtain varying final concentrations (0.01-0.2 M). The differential absorption spectra, corresponding to the formation of a Schiff base, are recorded at different time intervals, then corrected with absorbance of the buffer, the aminocaproic acid and FHN-P (measured separately).
The apparent first-order rate constant (kapp) and the maximum threshold variations of absorption (ΔAmax) are obtained for each test by applying the slow-binding absorption data to the first-order kinetic equation (or to both first-order kinetic mechanisms). The dissociation constant (Kd) for the Schiff base formed between the FHN-P and the aminocaproic acid is obtained from the absorption differences calculated at equilibrium by using the equation eqn.(2). […]
The FHN-P and the ε-amino group of aldolase lysine residues were taken as the model for formation of the Schiff base, with the reaction of FHN-P (10 μM) with aminocaproic acid […] as a reference, and which was monitored by UV-visible differential spectroscopy. […]

[2] = molecular target: T1, K107M mutant RM aldolase (Oryctolagus cuniculus, UniProt P00883, K108M); assay: UV-visible differential spectroscopy (method A) with mutated aldolase K107M; assay type: binding, rabbit; conditions: FHN-P 300 μM
T1 construct: made in house
T1 sequence (P00883 1-364 K108M): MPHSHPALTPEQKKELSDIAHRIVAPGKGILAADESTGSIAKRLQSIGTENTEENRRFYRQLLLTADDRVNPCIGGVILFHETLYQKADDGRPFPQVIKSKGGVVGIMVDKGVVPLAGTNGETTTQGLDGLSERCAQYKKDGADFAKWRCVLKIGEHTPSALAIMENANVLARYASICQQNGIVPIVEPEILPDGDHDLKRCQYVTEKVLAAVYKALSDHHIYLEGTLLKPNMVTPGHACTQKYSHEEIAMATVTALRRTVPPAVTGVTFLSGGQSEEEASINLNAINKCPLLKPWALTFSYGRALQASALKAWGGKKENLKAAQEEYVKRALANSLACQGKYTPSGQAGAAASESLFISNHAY
Description: For method A, absorption spectra are recorded as a function of time, between 250 and 500 nm, or at wavelengths corresponding to maximum or minimum absorption. Measurements are begun by adding FHN-P at varying final concentrations (0.1-1 mM) in the TEA buffer containing a fixed concentration of aldolase (10 μM of subunits). Measured absorption spectra for the enzyme complex are corrected using the absorbance of the buffer, the FHN—P, and the enzyme (measured separately). The differential absorption spectra thus obtained are used to calculate the value of the constants that define the formation of the aldolase-inhibitor complex.
Every UV-visible differential test spectroscopy test using mutated aldolases (10 μM of subunits) is carried out using method A. • Monitored by Electrospray Ionization Mass Spectrometry (ESI-MS).
Residues of lysine 106, 146 and 229 residues are located at the active aldolase sites and thus are candidates for causing inactivation by forming a Schiff base with the FHN-P. In order to identify which lysine is responsible for the differential absorbances in the presence of FHN-P, sporadic mutations of these lysine residues were created and named: K107M (Research Collaboratory for Structural Bioinformatics Protein Databank), K146M (Blonski C. et al., 1997, Biochem. J. 323:71-77) and […] (Research Collaboratory for Structural Bioinformatics Protein Databank). […] UV-visible differential spectroscopy (method A) was used to examine formation of the enzyme complex for each sporadic mutation in the presence of a fixed concentration of FHN-P (300 μM).

O=Cc1c(O)ccc2cc(OP(=O)(O)O)ccc12 [FHN-P, 5-formyl-6-hydroxy-2-naphthylphosphate]
second-order constant k2nd ([1]; FHN-P 10 μM with aminocaproic acid): 0.002 ± 0.00017 M⁻¹ s⁻¹
Kd ([1]; Schiff base, TEA buffer, read-out: dissociation constant Kd of FHN-P-aminocaproic acid): 16 ± 3 mM
Residual specific activity [2]: 95%
ΔA relative to 432 nm ([2]; slow phase only): 30%
kapp ([2]; slow phase only, 431 nm): 0.0015 ± 0.0005 min⁻¹
